Values belong to the compound of their own block, whether it stands above or below them.
Key:
[1] = target: Glutamate receptor ionotropic, NMDA 1 (Homo sapiens) (UniProt Q05586); assay: Selectivity interaction (Panel of non-epigenetic targets (kinases, GPCRs, ion channels, and transporters, Eurofins) ) EUB0000271b GRIN1; conditions: at 1 µM
[2] = target: Dual specificity testis-specific protein kinase 1 (Homo sapiens) (UniProt Q15569); conditions: at 10 µM
[3] = target: Cyclin-dependent kinase 13 (Homo sapiens, UniProt Q14004); assay: Selectivity interaction (Ambit KINOMEscan and KiNATiv profiling in Jurkat cells) EUB0000090b CDK13; assay type: cell-based; conditions: at 1 µM
Sequence of Cyclin-dependent kinase 13 (Q14004 whole entry, looked up): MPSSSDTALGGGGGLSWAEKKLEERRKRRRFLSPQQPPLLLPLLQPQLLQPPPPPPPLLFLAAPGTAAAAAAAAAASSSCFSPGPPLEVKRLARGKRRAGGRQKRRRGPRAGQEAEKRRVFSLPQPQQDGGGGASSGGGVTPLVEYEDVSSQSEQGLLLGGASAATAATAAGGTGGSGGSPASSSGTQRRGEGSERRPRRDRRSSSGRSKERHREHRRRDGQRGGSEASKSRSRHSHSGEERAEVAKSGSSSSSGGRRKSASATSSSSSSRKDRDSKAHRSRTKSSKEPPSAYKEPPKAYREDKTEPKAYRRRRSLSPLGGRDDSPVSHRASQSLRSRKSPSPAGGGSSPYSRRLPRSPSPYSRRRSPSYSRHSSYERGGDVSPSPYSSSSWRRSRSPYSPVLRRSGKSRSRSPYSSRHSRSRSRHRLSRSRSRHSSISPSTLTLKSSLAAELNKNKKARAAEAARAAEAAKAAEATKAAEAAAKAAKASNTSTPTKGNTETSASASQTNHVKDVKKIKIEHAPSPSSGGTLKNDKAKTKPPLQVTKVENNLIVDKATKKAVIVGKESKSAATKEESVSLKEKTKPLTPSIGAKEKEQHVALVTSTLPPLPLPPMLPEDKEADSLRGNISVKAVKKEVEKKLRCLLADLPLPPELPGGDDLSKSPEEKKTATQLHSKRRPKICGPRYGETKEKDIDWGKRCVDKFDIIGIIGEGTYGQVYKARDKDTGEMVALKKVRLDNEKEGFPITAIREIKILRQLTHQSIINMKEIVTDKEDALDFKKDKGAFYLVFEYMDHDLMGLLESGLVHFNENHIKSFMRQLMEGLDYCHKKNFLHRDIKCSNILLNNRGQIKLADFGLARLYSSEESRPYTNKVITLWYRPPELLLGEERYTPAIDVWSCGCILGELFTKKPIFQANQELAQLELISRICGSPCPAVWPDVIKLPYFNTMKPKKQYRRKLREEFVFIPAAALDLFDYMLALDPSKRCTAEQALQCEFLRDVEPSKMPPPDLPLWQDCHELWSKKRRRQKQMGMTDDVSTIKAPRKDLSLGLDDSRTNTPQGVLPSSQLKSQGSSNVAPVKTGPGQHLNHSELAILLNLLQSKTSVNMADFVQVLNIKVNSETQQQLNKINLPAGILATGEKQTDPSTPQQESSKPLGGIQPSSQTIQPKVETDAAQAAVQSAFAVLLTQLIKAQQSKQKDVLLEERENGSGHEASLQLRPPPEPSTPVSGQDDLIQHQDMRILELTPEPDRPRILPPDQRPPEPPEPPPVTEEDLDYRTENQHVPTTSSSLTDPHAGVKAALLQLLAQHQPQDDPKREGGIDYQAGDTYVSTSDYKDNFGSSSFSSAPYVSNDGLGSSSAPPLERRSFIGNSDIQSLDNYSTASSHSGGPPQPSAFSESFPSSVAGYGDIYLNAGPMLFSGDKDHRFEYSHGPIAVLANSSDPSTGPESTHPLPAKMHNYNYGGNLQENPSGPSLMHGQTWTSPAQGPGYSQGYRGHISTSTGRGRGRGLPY

[4] = target: Protein kinase C delta type (Homo sapiens) (UniProt Q05655); assay: Selectivity interaction (Millipore kinase profiler) EUB0000124b PRKCD; conditions: at 10 µM
Sequence of Protein kinase C delta type (Homo sapiens) (Q05655 whole entry, looked up): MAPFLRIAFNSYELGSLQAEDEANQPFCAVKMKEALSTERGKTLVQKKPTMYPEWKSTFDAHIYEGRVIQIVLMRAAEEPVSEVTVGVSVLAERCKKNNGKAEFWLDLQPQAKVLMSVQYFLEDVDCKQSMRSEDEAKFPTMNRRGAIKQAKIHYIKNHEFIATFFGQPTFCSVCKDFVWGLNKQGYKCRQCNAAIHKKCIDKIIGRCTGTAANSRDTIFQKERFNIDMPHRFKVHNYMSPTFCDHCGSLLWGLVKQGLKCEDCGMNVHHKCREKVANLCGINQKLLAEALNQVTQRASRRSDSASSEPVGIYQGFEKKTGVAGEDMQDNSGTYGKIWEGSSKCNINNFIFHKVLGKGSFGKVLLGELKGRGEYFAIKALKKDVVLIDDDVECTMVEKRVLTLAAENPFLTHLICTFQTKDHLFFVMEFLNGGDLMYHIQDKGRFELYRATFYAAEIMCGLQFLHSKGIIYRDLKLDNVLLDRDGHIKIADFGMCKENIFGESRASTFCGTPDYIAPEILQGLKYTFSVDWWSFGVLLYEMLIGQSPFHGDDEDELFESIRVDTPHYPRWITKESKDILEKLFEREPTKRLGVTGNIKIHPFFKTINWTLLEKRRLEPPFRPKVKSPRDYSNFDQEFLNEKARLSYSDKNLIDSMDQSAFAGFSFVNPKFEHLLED

[5] = target: T1, Mitogen-activated protein kinase kinase kinase 2 (Homo sapiens) (UniProt Q9Y2U5); assay: Selectivity interaction (KinomeScan (DiscoverX)) EUB0000607a MAP3K2; conditions: at 10 µM
T1 sequence (whole entry): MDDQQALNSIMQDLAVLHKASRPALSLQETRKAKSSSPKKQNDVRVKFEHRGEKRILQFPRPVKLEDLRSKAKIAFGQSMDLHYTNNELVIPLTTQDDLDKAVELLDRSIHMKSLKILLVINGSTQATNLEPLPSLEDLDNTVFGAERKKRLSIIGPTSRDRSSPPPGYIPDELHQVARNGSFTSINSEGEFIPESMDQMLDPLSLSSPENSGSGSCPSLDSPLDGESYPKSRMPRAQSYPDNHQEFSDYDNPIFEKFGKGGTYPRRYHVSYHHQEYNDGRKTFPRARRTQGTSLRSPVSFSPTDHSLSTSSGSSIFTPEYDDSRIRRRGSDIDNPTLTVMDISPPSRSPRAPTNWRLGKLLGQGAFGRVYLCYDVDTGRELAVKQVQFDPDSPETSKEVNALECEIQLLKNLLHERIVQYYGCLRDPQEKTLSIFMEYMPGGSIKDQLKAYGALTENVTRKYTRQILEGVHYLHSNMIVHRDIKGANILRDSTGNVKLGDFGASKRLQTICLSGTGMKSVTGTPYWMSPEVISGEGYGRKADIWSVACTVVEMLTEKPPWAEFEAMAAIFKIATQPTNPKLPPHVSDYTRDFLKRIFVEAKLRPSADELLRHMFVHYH

[6] = target: Serine/threonine-protein kinase MRCK alpha (Homo sapiens) (UniProt Q5VT25); assay: Selectivity interaction (KinomeScan (DiscoverX)) EUB0001619a CDC42BPA; conditions: at 1 µM
Sequence of Serine/threonine-protein kinase MRCK alpha (Homo sapiens) (Q5VT25 whole entry): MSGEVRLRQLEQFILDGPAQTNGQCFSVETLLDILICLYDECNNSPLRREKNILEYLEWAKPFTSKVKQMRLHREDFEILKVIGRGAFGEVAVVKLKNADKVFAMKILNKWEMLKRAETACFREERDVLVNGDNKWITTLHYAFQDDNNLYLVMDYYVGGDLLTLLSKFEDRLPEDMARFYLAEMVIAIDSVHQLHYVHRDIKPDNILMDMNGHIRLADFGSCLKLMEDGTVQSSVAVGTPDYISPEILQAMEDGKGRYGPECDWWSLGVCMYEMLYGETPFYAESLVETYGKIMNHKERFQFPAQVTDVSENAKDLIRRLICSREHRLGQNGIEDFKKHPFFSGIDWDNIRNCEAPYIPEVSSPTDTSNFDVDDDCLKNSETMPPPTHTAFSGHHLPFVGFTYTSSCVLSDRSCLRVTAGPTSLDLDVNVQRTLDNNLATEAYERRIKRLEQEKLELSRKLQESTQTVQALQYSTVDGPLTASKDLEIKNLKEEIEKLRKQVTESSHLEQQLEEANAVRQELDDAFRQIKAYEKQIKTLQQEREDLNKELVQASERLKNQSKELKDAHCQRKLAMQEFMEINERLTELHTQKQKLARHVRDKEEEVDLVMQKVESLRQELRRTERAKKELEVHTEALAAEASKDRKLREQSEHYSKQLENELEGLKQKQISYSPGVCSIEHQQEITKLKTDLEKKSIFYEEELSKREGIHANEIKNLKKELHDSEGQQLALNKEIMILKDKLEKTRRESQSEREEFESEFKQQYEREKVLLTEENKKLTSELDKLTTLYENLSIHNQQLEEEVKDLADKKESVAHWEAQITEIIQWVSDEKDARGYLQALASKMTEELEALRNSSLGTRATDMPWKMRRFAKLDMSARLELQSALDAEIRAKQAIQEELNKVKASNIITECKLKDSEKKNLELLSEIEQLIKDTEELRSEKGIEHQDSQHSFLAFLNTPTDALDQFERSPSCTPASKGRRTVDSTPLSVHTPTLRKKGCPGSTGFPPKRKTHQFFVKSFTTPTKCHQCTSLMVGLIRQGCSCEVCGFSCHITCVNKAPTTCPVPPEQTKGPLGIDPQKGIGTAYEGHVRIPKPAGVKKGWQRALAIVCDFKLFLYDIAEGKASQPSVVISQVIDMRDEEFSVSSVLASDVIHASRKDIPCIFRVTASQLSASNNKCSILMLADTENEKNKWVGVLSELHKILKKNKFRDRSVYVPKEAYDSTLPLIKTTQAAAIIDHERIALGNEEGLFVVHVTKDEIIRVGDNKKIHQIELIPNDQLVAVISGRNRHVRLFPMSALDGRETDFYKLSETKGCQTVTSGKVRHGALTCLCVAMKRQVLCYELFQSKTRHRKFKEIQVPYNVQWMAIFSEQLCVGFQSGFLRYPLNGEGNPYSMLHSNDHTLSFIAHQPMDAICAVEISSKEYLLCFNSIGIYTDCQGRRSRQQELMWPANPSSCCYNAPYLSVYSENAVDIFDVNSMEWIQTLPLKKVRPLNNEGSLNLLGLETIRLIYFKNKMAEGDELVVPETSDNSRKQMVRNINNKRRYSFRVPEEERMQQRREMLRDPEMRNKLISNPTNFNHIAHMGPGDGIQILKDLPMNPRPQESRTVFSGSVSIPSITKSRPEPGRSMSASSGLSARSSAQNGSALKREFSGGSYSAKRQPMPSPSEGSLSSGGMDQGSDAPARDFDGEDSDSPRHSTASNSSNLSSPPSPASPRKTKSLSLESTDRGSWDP

[7] = target: T2, Mitogen-activated protein kinase kinase kinase 3 (Homo sapiens) (UniProt Q99759); assay: Selectivity interaction (ActivX KiNativ screen (ex vivo kinase selectivity in human PBMCs)) EUB0001619a MAP3K3; assay type: cell-based; conditions: PBMC, at 1 µM
T2 sequence (whole entry): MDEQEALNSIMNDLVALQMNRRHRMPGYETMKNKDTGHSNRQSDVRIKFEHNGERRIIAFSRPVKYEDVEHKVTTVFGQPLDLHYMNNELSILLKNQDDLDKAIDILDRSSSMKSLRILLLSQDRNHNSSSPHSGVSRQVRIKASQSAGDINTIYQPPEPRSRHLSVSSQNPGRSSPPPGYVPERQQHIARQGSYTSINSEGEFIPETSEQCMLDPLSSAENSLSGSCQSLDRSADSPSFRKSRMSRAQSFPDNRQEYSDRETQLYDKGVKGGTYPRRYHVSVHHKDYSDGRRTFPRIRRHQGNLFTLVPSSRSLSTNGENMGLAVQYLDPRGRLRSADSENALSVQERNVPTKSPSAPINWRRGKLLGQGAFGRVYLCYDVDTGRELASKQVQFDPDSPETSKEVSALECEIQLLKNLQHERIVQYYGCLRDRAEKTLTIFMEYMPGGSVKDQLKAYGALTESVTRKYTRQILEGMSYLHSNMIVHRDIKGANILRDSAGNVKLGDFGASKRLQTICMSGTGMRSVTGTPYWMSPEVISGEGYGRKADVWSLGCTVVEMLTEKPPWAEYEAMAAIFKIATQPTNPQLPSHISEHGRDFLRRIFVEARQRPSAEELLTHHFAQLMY

[8] = target: Homeodomain-interacting protein kinase 3 (Homo sapiens, UniProt Q9H422); assay: Selectivity interaction (Upstate Kinase Profiler service (Millipore)) EUB0000056c HIPK3; conditions: at 1 µM
[9] = target: T3, Aurora kinase A (Homo sapiens) (UniProt O14965); assay: Selectivity interaction (Kinase panel (KiNativ target engagement assay in Jurkat cells)) EUB0001635a STK6; assay type: cell-based; conditions: at 1 µM
T3 sequence (whole entry): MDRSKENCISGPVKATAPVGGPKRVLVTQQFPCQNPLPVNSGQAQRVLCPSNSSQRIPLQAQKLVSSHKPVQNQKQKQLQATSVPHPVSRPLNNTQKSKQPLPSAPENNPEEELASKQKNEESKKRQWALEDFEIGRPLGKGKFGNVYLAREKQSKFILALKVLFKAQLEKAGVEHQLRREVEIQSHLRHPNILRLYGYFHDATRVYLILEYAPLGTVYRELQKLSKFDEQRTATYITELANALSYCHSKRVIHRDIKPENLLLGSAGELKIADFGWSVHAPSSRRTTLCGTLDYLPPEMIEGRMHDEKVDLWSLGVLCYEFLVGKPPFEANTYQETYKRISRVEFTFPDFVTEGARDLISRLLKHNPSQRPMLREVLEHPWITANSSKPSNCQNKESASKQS

[10] = target: Cyclin-dependent kinase 1 (Homo sapiens) (UniProt P06493); assay: Selectivity interaction (Kinase panel (KiNativ target engagement assay in Jurkat cells)) EUB0001635a CDK1; assay type: cell-based; conditions: Selectivity number of off-targets 0.0, Selectivity number of targets 233.0, Source Knowledge https://www.sciencedirect.com/science/article/pii/S2451945619300674?via%3Dihub, at 1 µM
Sequence of Cyclin-dependent kinase 1 (Homo sapiens) (P06493 whole entry, looked up): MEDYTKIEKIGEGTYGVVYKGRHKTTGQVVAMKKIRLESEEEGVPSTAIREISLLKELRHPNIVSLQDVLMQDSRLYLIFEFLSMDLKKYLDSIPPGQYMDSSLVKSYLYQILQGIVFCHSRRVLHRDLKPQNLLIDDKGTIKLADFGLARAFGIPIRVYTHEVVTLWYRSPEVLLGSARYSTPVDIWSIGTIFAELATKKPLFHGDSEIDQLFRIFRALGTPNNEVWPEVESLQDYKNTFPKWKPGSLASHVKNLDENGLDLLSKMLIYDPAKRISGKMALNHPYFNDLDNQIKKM

[11] = target: Vascular endothelial growth factor receptor 3 (Homo sapiens, UniProt P35916); assay: Selectivity interaction (Kinase panel (Invitrogen)) EUB0000639a FLT4; conditions: at 200 nM
[12] = target: Serine/threonine-protein kinase 10 (Homo sapiens) (UniProt O94804); assay: Selectivity interaction (ActivX KiNativ screen (kinase selectivity in THP-1 cell lysates)) EUB0000639a STK10; assay type: subcellular; conditions: lysate, at 1 µM
[13] = target: Insulin-like growth factor 1 receptor (Homo sapiens, UniProt P08069); assay: Selectivity interaction (KinomeScan (DiscoverX)) EUB0000666a IGF1R; conditions: at 10 µM
[14] = target: Vascular endothelial growth factor receptor 2 (Homo sapiens, UniProt P35968); assay: Selectivity interaction (KinomeScan (DiscoverX)) EUB0000092b KDR; conditions: at 10 µM
[15] = target: Ribosomal protein S6 kinase alpha-5 (Homo sapiens) (UniProt O75582); assay: Selectivity interaction (KinomeScan (DiscoverX)) EUB0000092b RPS6KA5; conditions: at 10 µM
[16] = target: Bromodomain-containing protein 3 (Homo sapiens) (UniProt Q15059); assay: Selectivity interaction (Human bromodomain panel (DSF assay)) EUB0000233b BRD3
Sequence of Bromodomain-containing protein 3 (Homo sapiens) (Q15059 2-726 limits assumed): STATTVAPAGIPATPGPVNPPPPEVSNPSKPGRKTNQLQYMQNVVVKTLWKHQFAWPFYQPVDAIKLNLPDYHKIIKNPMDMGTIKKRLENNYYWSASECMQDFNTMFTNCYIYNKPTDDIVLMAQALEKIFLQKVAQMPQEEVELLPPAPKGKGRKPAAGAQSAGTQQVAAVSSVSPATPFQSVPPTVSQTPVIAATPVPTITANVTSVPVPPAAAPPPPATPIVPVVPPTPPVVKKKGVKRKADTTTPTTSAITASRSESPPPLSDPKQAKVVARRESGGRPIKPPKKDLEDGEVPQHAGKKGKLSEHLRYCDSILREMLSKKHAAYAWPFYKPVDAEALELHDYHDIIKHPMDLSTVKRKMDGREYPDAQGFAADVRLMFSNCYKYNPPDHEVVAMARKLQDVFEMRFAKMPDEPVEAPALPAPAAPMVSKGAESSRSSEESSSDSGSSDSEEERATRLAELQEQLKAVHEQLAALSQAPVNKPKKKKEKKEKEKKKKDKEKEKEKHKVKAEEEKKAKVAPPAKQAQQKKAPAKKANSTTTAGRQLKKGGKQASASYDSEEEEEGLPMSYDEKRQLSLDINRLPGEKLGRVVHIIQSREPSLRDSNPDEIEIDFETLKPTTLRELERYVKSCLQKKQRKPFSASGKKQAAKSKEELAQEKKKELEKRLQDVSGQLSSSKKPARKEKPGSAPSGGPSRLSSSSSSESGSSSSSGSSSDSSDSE

[17] = target: Serine/threonine-protein kinase 26 (Homo sapiens, UniProt Q9P289); assay: Selectivity interaction (KinomeScan (DiscoverX)) EUB0001868a STK26; conditions: at 1 µM

SMILES: Cc1cc(C)cc([C@@H]2c3cc(C)ccc3NC(=O)CN2C(=O)c2ccc(Br)s2)c1
- % of inhibition [1]: 1%

- % of control [2]: 100%
SMILES: CCN(CC)CCCCNc1ncc2cc(-c3cc(OC)cc(OC)c3)c(NC(=O)NC(C)(C)C)nc2n1

SMILES: CN(C)C/C=C/C(=O)Nc1ccc(C(=O)N2CCCC(Nc3ncc(Cl)c(-c4c[nH]c5ccccc45)n3)C2)cc1 (stereo not drawn)
- % of control [3]: 2.8%

- % of control [4]: 97%
SMILES: CC(=O)Nc1cccc(-n2c(=O)n(C3CC3)c(=O)c3c(Nc4ccc(I)cc4F)n(C)c(=O)c(C)c32)c1

SMILES: CNC(=O)Nc1ccc(-c2nc(N3CC4CCC(C3)O4)c3cnn(C4CCC5(CC4)OCCO5)c3n2)cc1
- % of control [5]: 95%

SMILES: N#Cc1cccc(-c2c[nH]c3ncnc(N4CCOCC4)c23)c1
- % of control [6]: 100%
- % of inhibition [7]: 7%

- % of inhibition [8]: -11%
SMILES: Cc1ccc(-c2ccc3c(ccc4sc5c(c43)NC[C@@H](C)NC5=O)n2)cn1

SMILES: C=CC(=O)Nc1ccc(C(=O)Nc2[nH]nc3c2CN(C(=O)N[C@H](CN(C)C)c2ccccc2)C3(C)C)cc1
- % of engagement ([9]; Selectivity number of off-targets 0.0, Selectivity number of targets 233.0, Source Knowledge https://www.sciencedirect.com/science/article/pii/S2451945619300674?via%3Dihub): 22.4%
- % of engagement [9]: 26%
- % of engagement [10]: -6.3%

- % of inhibition [11]: 0.591%
- % of inhibition [12]: -16.6%
SMILES: CC[C@@H]1[C@H](F)C(=O)N[C@@H]1COc1nccc2cc(C(N)=O)c(OC)cc12 [ZIMLOVISERTIB]

SMILES: O=C(NOC[C@H](O)CO)c1ccc(F)c(F)c1Nc1ccc(I)cc1F
- % of control [13]: 87%

SMILES: CCC(=O)N1CCN(c2ccc(-n3c(=O)ccc4cnc5ccc(-c6cnc7ccccc7c6)cc5c43)cc2C(F)(F)F)CC1
- % of control [14]: 65%
- % of control [15]: 100%

- dTM [16]: < 2 K
SMILES: CN(C)CCCOc1ccc(-c2cc(NCCCn3cccn3)nc(S(C)(=O)=O)n2)cc1

- % of control [17]: 42%
SMILES: Cc1cc(-c2ccnc(Nc3cnn(C)c3)n2)ccc1CNC(=O)N1CC(OC(C)C)C1
